Data set [1] deals with Mycobacterium avium ATCC700898. Kind of data set: Determination of IC85 against M. avium (resazurin fluorescence). Format: cell-based. Conditions: Mycobacterium avium.
Data set [2] is described as follows: Metabolic stability test in pooled human liver microsomes. Format: in vitro ADME. To be noted: human liver microsomes 0.5 mg protein/mL, 1 mmol/L NADPH, 37° C., 30 minutes. In short, it runs like this:
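Remaining-rate readout: parent compound left after 30 min versus 0 min (set as 100%), measured by LC/MS/MS or SPE/MS. Oxidative reaction ran at 37° C. with 1 mmol/L NADPH, 0.5 mg protein/mL pooled human microsomes, 50 mmol/L Tris-HCl pH 7.4 buffer.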
On the technique in general: Liver microsomes are vesicles of endoplasmic reticulum, rich in cytochrome P450 enzymes.

Setting [3] is: ATCC700898, M. avium ATCC700898, CAMHB medium, 37° C., 3 days incubation then resazurin, fluorescence one day later, read-out: IC85.

Results on 14 compounds are retold here after US20220340566A1, “BENZYL AMINE-CONTAINING 5,6-HETEROAROMATIC COMPOUNDS USEFUL AGAINST MYCOBACTERIAL INFECTION” (priority 2019, published 2022).

Like-named read-outs stand apart in the source and are kept apart here.

As for `Cc1nc2ccc(Br)cn2c1C(=O)NCc1ccc(N2CCC(c3ccc(F)cc3)CC2)cc1` [Compound I-3-37], the IC85 in data set [1] (setting [3]) is 16 nM. In addition, the “MS_h_% (remaining amount of compound after reaction, 0 minute = 100%)” value in data set [2] was determined as 68%.

Consider `CC1=CN2C(=NC(C)C2C(=O)NCc2ccc3c(c2)OCCO3)C=C1` (stereo not shown) [Compound I-3-38], for which the IC85 in data set [1] (setting [3]) was 860 nM. The “MS_h_% (remaining amount of compound after reaction, 0 minute = 100%)” value in data set [2] was 67.7%.

In the case of `[2H]c1c(C([2H])([2H])[2H])c([2H])n2c(C(=O)NCc3cc(F)ccc3F)c(C)nc2c1[2H]` [Compound I-3-39], in data set [1] (setting [3]), the IC85 worked out at 800 nM. Besides, the “MS_h_% (remaining amount of compound after reaction, 0 minute = 100%)” value in data set [2] is 67.2%.

For `CCc1nc2cc(C)ccn2c1C(=O)NCc1ccc(Oc2cccc(C(F)(F)F)c2)cc1` [Compound I-3-40], in data set [1] (setting [3]), the IC85 was determined as 590 nM. Moreover, in data set [2], the “MS_h_% (remaining amount of compound after reaction, 0 minute = 100%)” value was 66%.

In the case of `Cl.O=C(NCc1ccc(OC2CCC(Oc3ccc(OC(F)(F)F)cc3)CC2)c(F)c1)c1cnc2ccc(Cl)cn12` (stereo not shown) [Compound I-3-41], the IC85 in data set [1] (setting [3]) turned out to be 150 nM. For the same compound, in data set [2], the “MS_h_% (remaining amount of compound after reaction, 0 minute = 100%)” value is 65.4%.

Consider `Cc1ccn2c(C(=O)NCc3ccc(N4CCN(CC(F)F)CC4)c(F)c3)cnc2c1` [Compound I-3-42], for which, in data set [1] (setting [3]), the IC85 amounted to 930 nM. Further, the “MS_h_% (remaining amount of compound after reaction, 0 minute = 100%)” value in data set [2] worked out at 64.6%.

For `Cc1cn2c(C(=O)NCc3ccc(N4CC5(CCN(c6ccc(C(F)(F)F)cc6)CC5)C4)c(F)c3)c(C)nc2s1` [Compound I-3-43], the IC85 in data set [1] (setting [3]) was determined as 150 nM. In addition, the “MS_h_% (remaining amount of compound after reaction, 0 minute = 100%)” value in data set [2] is recorded as 64.1%.

As to `Cc1ccc2nc(C)c(C(=O)NCc3ccc(S(F)(F)(F)(F)F)cc3)n2c1` [Compound I-3-44], the IC85 in data set [1] (setting [3]) came out at 110 nM. Besides, the “MS_h_% (remaining amount of compound after reaction, 0 minute = 100%)” value in data set [2] was 63.9%.

`CCc1nc2ccc(Cl)cn2c1C(=O)NCc1ccc(-n2cc3c(n2)CN(c2ccc(OC(F)(F)F)cc2)C3)c(F)c1.Cc1ccc(S(=O)(=O)O)cc1` [Compound I-3-45] returned an IC85 in data set [1] (ATCC700898) of 4.6 nM. The “MS_h_% (remaining amount of compound after reaction, 0 minute = 100%)” value in data set [2] was found to be 63.2%.

As for `Cc1cn2c(C(=O)NCc3ccc(Oc4cccc(C(F)(F)F)c4)cc3)c(C)nc2s1` [Compound I-3-46], in data set [1] (setting [3]), the IC85 amounted to 610 nM. For the same compound, in data set [2], the “MS_h_% (remaining amount of compound after reaction, 0 minute = 100%)” value stood at 63.1%.

Take `CCc1nc2ccc(Cl)cn2c1C(=O)NCc1ccc(-n2cc3c(n2)CN(c2ccc(OC(F)(F)F)cc2)C3)c(F)c1.Cl` [Compound I-3-47]: the IC85 in data set [1] (setting [3]) came out at 5.1 nM. The “MS_h_% (remaining amount of compound after reaction, 0 minute = 100%)” value in data set [2] is 62%.

As to `Cc1nc2cnccn2c1C(=O)NCc1ccc(N2CCN(c3ccc(OC(F)(F)F)cc3)CC2)c(F)c1` [Compound I-3-48], in data set [1] (setting [3]), the IC85 came out at 660 nM. Besides, the “MS_h_% (remaining amount of compound after reaction, 0 minute = 100%)” value in data set [2] is 60.4%.

As to `Cc1ccn2c(C(=O)NCc3ccc(O[C@H]4CCN(c5ccc(OC(F)(F)F)cc5)C4)c(F)c3)c(C)nc2c1` [Compound I-3-49], the IC85 in data set [1] (setting [3]) amounted to 500 nM. Further, the “MS_h_% (remaining amount of compound after reaction, 0 minute = 100%)” value in data set [2] is given as 60.2%.

Turning to `COc1ccn2nc(C)c(C(=O)NCc3ccc(N4CCN(c5ccc(OC(F)(F)F)cc5)[C@@H](C)C4)cc3)c2c1` [Compound I-3-50], in data set [1] (setting [3]), the IC85 was 5.8 nM. The “MS_h_% (remaining amount of compound after reaction, 0 minute = 100%)” value in data set [2] is on record as 58.5%.
